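Test compounds were applied to cells in 96-well plates for 48 hours at 5 doses. GI50 marks 50% less growth.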 Active and inactive are the calls of the source. No stated cut-off is given here; in the data, active = GI50 up to about 1.1 µM and inactive = higher.
How the values were obtained:
Assay in all cases: NCI-60 cell line screen, 48 h
SK-MEL-5 = tested on: SK-MEL-5
MCF7 = tested on: MCF7
IGROV-1 = tested on: IGROV-1
COLO 205 = tested on: COLO 205
SF-295 = tested on: SF-295
OVCAR-4 = tested on: OVCAR-4
CAKI-1 = tested on: CAKI-1
Hs-578T = tested on: Hs-578T
SNB-75 = tested on: SNB-75
NCI-H460 = tested on: NCI-H460
BT-549 = tested on: BT-549
NCI-H23 = tested on: NCI-H23
786-0 = tested on: 786-0
SK-MEL-28 = tested on: SK-MEL-28
UACC-62 = tested on: UACC-62
HOP-92 = tested on: HOP-92
HL-60 = tested on: HL-60
SW-620 = tested on: SW-620
OVCAR-8 = tested on: OVCAR-8
TK-10 = tested on: TK-10

| SMILES | GI50 (SK-MEL-5) | GI50 (MCF7) | GI50 (IGROV-1) | GI50 (COLO 205) | GI50 (SF-295) | GI50 (OVCAR-4) | GI50 (CAKI-1) | GI50 (Hs-578T) | GI50 (SNB-75) | GI50 (NCI-H460) | GI50 (BT-549) | GI50 (NCI-H23) | GI50 (786-0) | GI50 (SK-MEL-28) | GI50 (UACC-62) | GI50 (HOP-92) | GI50 (HL-60) | GI50 (SW-620) | GI50 (OVCAR-8) | GI50 (TK-10) |
| --- | --- | --- | --- | --- | --- | --- | --- | --- | --- | --- | --- | --- | --- | --- | --- | --- | --- | --- | --- | --- |
| Cc1c(NC(=O)Nc2c(Cl)cccc2Cl)c(=O)n(-c2ccccc2)n1C | > 100 µM (inactive) | > 100 µM (inactive) | > 100 µM (inactive) | > 100 µM (inactive) | > 100 µM (inactive) | > 100 µM (inactive) | > 100 µM (inactive) | > 100 µM (inactive) | > 100 µM (inactive) | > 100 µM (inactive) | > 100 µM (inactive) | > 100 µM (inactive) | > 100 µM (inactive) | > 100 µM (inactive) | > 100 µM (inactive) | > 100 µM (inactive) | > 100 µM (inactive) | > 100 µM (inactive) | > 100 µM (inactive) | > 100 µM (inactive) |
| O=C(CC(=O)Nc1ccccc1Cl)NNC(c1cc(/N=N/c2ccc(Br)cc2)ccc1O)P(O)O (stereo not given) | 1.19 µM (inactive) | 0.791 µM (active) | 6.9 µM (inactive) | 3.89 µM (inactive) | 1.67 µM (inactive) | 2.34 µM (inactive) | 1.36 µM (inactive) | > 10 µM (inactive) | 1.62 µM (inactive) | 0.537 µM (active) | 2.33 µM (inactive) | 2.53 µM (inactive) | 0.565 µM (active) | 7.43 µM (inactive) | 0.964 µM (active) | 5.98 µM (inactive) | 0.323 µM (active) | 0.647 µM (active) | 0.525 µM (active) | 1.61 µM (inactive) |
| COc1cc(I)c2c3c1OC1C34CCN(C)C(C2)C4=CC(I)C1(OC)OC (stereo not given) | 17.1 µM (inactive) | 20.7 µM (inactive) | 20.1 µM (inactive) | 19.4 µM (inactive) | 46.2 µM (inactive) | 15 µM (inactive) | 22.4 µM (inactive) | 53.2 µM (inactive) | 15.9 µM (inactive) | 19.1 µM (inactive) | 23.9 µM (inactive) | 24.5 µM (inactive) | 20.3 µM (inactive) | 18.2 µM (inactive) | 19.2 µM (inactive) | 13.1 µM (inactive) | 17 µM (inactive) | 19 µM (inactive) | 20.1 µM (inactive) | 21.3 µM (inactive) |
| COC(=O)Nc1nc2cc(S(=O)(=O)NC(CC(C)C)C(=O)OC)ccc2[nH]1 (stereo not given) | 0.7 µM (active) | 1.65 µM (inactive) | 2.25 µM (inactive) | 3.22 µM (inactive) | 1.83 µM (inactive) | 4.83 µM (inactive) | 3.66 µM (inactive) | 0.818 µM (active) | 2.44 µM (inactive) | 4.17 µM (inactive) | 35.7 µM (inactive) | 3.25 µM (inactive) | 3.14 µM (inactive) | 4.35 µM (inactive) | 4.01 µM (inactive) | 2.83 µM (inactive) | 2.69 µM (inactive) | 3.25 µM (inactive) | 3.96 µM (inactive) | 6.47 µM (inactive) |
| COC(=O)C1=C(C(=O)OC)SC2(S1)C(C(=O)OC)=C(C(=O)OC)Sc1c2ss/c1=N/C(C)(C)C | 1.91 µM (inactive) | 1.26 µM (inactive) | 1.4 µM (inactive) | 1.45 µM (inactive) | 14.1 µM (inactive) | 1.79 µM (inactive) | 1.53 µM (inactive) | 4.32 µM (inactive) | 1.45 µM (inactive) | 0.533 µM (active) | 2.07 µM (inactive) | 2.23 µM (inactive) | 1.31 µM (inactive) | 2.07 µM (inactive) | 1.56 µM (inactive) | 1.3 µM (inactive) | 0.753 µM (active) | 0.622 µM (active) | 1.71 µM (inactive) | 1.64 µM (inactive) |
| CCn1c2ccccc2c2cc(/N=N\c3ccc(C#N)cc3)ccc21 | 50.7 µM (inactive) | 4.41 µM (inactive) | 32.5 µM (inactive) | 74.5 µM (inactive) | 32.1 µM (inactive) | 98.6 µM (inactive) | 20.4 µM (inactive) | 42.1 µM (inactive) | 30.4 µM (inactive) | 64.7 µM (inactive) | 20.7 µM (inactive) | 23.5 µM (inactive) | 29 µM (inactive) | > 100 µM (inactive) | 61.4 µM (inactive) | 25.3 µM (inactive) | 32.1 µM (inactive) | > 100 µM (inactive) | 39.3 µM (inactive) | 32.1 µM (inactive) |
| COc1ccc(Nc2nc3ccccc3nc2C(=O)O)cc1 | 37.2 µM (inactive) | > 100 µM (inactive) | 87.9 µM (inactive) | 37.7 µM (inactive) | 61.7 µM (inactive) | > 100 µM (inactive) | 46.6 µM (inactive) | 16 µM (inactive) | 59.7 µM (inactive) | 23.6 µM (inactive) | > 100 µM (inactive) | 66.7 µM (inactive) | 49.1 µM (inactive) | 68.4 µM (inactive) | > 100 µM (inactive) | > 100 µM (inactive) | 63.8 µM (inactive) | 37.6 µM (inactive) | 71.3 µM (inactive) | > 100 µM (inactive) |
| O=c1oc2c(ccc3c(O)cccc32)c2c1CCCC2 | 47.2 µM (inactive) | 42.2 µM (inactive) | > 100 µM (inactive) | > 100 µM (inactive) | 14.5 µM (inactive) | > 100 µM (inactive) | 32.2 µM (inactive) | 7.46 µM (inactive) | 4.85 µM (inactive) | 45.2 µM (inactive) | 15.1 µM (inactive) | 26.9 µM (inactive) | 33.4 µM (inactive) | > 100 µM (inactive) | 4.71 µM (inactive) | 16.6 µM (inactive) | > 100 µM (inactive) | > 100 µM (inactive) | 30.6 µM (inactive) | > 100 µM (inactive) |
| COc1ccc2cc(C(C)C(=O)N3CCOC3=O)ccc2c1 (stereo not given) | > 100 µM (inactive) | > 100 µM (inactive) | > 100 µM (inactive) | > 100 µM (inactive) | > 100 µM (inactive) | > 100 µM (inactive) | > 100 µM (inactive) | > 100 µM (inactive) | 44.7 µM (inactive) | > 100 µM (inactive) | > 100 µM (inactive) | > 100 µM (inactive) | > 100 µM (inactive) | > 100 µM (inactive) | > 100 µM (inactive) | > 100 µM (inactive) | > 100 µM (inactive) | > 100 µM (inactive) | > 100 µM (inactive) | > 100 µM (inactive) |
| Nc1ccc(-c2nc3cc(F)ccc3s2)cc1 | 61.4 µM (inactive) | < 0.01 µM (active) | 13 µM (inactive) | 61 µM (inactive) | 25.5 µM (inactive) | > 36.7 µM (inactive) | 27.7 µM (inactive) | 37.7 µM (inactive) | 11.2 µM (inactive) | 7.98 µM (inactive) | > 100 µM (inactive) | 1.43 µM (inactive) | > 85.3 µM (inactive) | > 100 µM (inactive) | 28.6 µM (inactive) | 23.1 µM (inactive) | 25.4 µM (inactive) | > 100 µM (inactive) | > 95.9 µM (inactive) | 30.5 µM (inactive) |
